Here are results for 17 substances from patent US10517889B2, “Modulators of SMAD7 expression” (Ionis Pharmaceuticals, Inc., priority 2017, dated 2019).

The test system of the data set is human SMAD7 mRNA. Description: Antisense inhibition of human SMAD7 mRNA expression in Hep3B cells by 5-10-5 MOE gapmers, single concentration, electroporation, RT-PCR (Example 1, Study 1 and 2). Type of data set: cell-based. The procedure, abridged:
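Readout is percent SMAD7 mRNA inhibition versus untreated cells, measured by qRT-PCR (RTS5062) and corrected for total RNA by RIBOGREEN. Oligonucleotide, 5,000 nM or 15,000 nM, was delivered by electroporation into Hep3B cells at 20,000 per well. RNA was collected about 24 h later.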

Setting [1] is: electroporation, 15,000 nM antisense oligonucleotide (Study 2), 5-10-5 MOE gapmers targeting SEQ ID NO: 1 and 2.
Setting [2] is: electroporation with 15,000 nM antisense oligonucleotide (Study 2), 5-10-5 MOE gapmers targeting SEQ ID NO: 1 and 2.
The mark [3] stands for this setting: Study 2, electroporation with 15,000 nM antisense oligonucleotide, 5-10-5 MOE gapmers targeting SEQ ID NO: 1 and 2.

Strand notation (5' to 3'): a small letter for the sugar, then the base; units joined by * are phosphorothioate-linked, units joined directly phosphodiester-linked; [ ] holds rarer units or linkages, { } end groups; capitals alone tell only the bases. e = 2'-O-(2-methoxyethyl) (MOE); [5mC] = 5-methylcytosine; d = 2'-deoxy (DNA)

Regarding “771530 (antisense eA*eA*eA*eA*eA*d[5mC]*dG*dA*d[5mC]*d[5mC]*dA*dA*dA*dG*dA*eG*eT*eT*eT*eG) [compound 771530]”, the “% inhibition of SMAD7 mRNA expression” value under setting [1] was 16%.
Regarding “771473 (antisense eA*eG*e[5mC]*e[5mC]*eG*dA*dT*dT*dT*dT*dG*d[5mC]*dT*d[5mC]*d[5mC]*eG*e[5mC]*eA*e[5mC]*e[5mC]) [compound 771473]”, under setting [2], the “% Inhibition of SMAD7 mRNA” value was 37%. The “% inhibition of SMAD7 mRNA expression” value under setting [1] is given as 9%.
In the case of “771906 (antisense eA*e[5mC]*e[5mC]*e[5mC]*eT*dT*dG*d[5mC]*dT*dG*dG*dT*d[5mC]*dT*d[5mC]*eT*eT*eG*eT*eT) [compound 771906]”, the “% inhibition of SMAD7 mRNA expression” value under setting [1] amounted to 0%.
Take “771909 (antisense e[5mC]*eA*eG*eG*e[5mC]*dT*d[5mC]*d[5mC]*d[5mC]*dT*dG*dT*dG*d[5mC]*d[5mC]*eA*eA*eT*e[5mC]*eA) [compound 771909]”: the “% inhibition of SMAD7 mRNA expression” value (electroporation, 15,000 nM, approximately 24 hours, relative to untreated control cells, gapmers targeting SEQ ID NO: 1 and 2) was 52%.
For the substance “771503 (antisense eG*e[5mC]*eT*e[5mC]*eA*d[5mC]*dG*d[5mC]*dT*d[5mC]*dT*dG*dT*d[5mC]*d[5mC]*e[5mC]*e[5mC]*eT*e[5mC]*e[5mC]) [compound 771503]”, under setting [3], the “% inhibition of SMAD7 mRNA expression” value is listed as 27%.
Consider “771739 (antisense eT*eT*eT*eG*eA*dA*dA*dA*d[5mC]*d[5mC]*d[5mC]*dA*dA*d[5mC]*d[5mC]*e[5mC]*eT*eG*eG*eG) [compound 771739]”, for which the “% Inhibition” value under setting [3] worked out at 33%. Further, the “% inhibition of SMAD7 mRNA expression” value (electroporation, 5,000 nM, approximately 24 hours, relative to untreated control cells, gapmers targeting SEQ ID NO: 1 and 2) came out at 22%.
“771485 (antisense eA*eA*eG*e[5mC]*e[5mC]*d[5mC]*dG*dT*d[5mC]*d[5mC]*dA*d[5mC]*dG*dG*d[5mC]*eT*eG*e[5mC]*eT*eG) [compound 771485]”: the “% inhibition of SMAD7 mRNA expression” value under setting [3] was 15%.
As for “771935 (antisense eG*eG*eA*eA*eG*dG*dA*d[5mC]*dA*d[5mC]*dA*dT*dT*dG*dG*e[5mC]*eA*eT*e[5mC]*eA) [compound 771935]”, under setting [3], the “% Inhibition” value stood at 23%.
Take “771631 (antisense eG*eG*eG*eA*e[5mC]*dT*dG*d[5mC]*dT*dA*dA*dG*d[5mC]*dA*dT*eG*eT*e[5mC]*e[5mC]*e[5mC]) [compound 771631]”: the “% inhibition of SMAD7 mRNA expression” value under setting [3] is 0%.
“771375 (antisense e[5mC]*eT*eA*eA*eA*d[5mC]*dA*dG*d[5mC]*dA*dT*dG*dA*dA*dA*eG*eA*e[5mC]*eA*eA) [compound 771375]”: the “% Inhibition” value under setting [3] amounted to 4%.
On to “771658 (antisense eA*eA*eT*eA*eG*d[5mC]*dT*dT*dA*dT*dG*dT*dT*dA*dA*eA*eG*eT*e[5mC]*eT) [compound 771658]”, for which the “% inhibition of SMAD7 mRNA expression” value under setting [2] was determined as 33%.
Take “771504 (antisense e[5mC]*eA*eG*e[5mC]*eT*d[5mC]*dA*d[5mC]*dG*d[5mC]*dT*d[5mC]*dT*dG*dT*e[5mC]*e[5mC]*e[5mC]*e[5mC]*eT) [compound 771504]”: under setting [3], the “% inhibition of SMAD7 mRNA expression” value is reported as 48%.
With “771450 (antisense e[5mC]*eT*eA*eG*eT*dT*d[5mC]*dG*d[5mC]*dA*dG*dA*dG*dT*d[5mC]*eG*eG*e[5mC]*eT*eA) [compound 771450]”, the “% inhibition of SMAD7 mRNA expression” value under setting [1] is 45%.
As for “771516 (antisense eG*eA*eG*eG*eA*dA*dA*dA*dT*dA*dT*dT*dA*dG*d[5mC]*eA*eG*e[5mC]*eA*eA) [compound 771516]”, the “% inhibition of SMAD7 mRNA expression” value under setting [3] was determined as 8%.
“771774 (antisense eG*eA*eA*eA*eA*dA*d[5mC]*dA*dG*dG*dT*dA*dG*dA*dA*eA*eT*eA*eG*eG) [compound 771774]”: under setting [3], the “% Inhibition” value is given as 14%.
As for “771522 (antisense eG*e[5mC]*eA*eT*eG*dA*dA*dA*dA*dG*d[5mC]*dA*dA*dG*d[5mC]*eA*e[5mC]*eT*e[5mC]*eA) [compound 771522]”, the “% inhibition of SMAD7 mRNA expression” value under setting [1] came to 29%.
Consider “771690 (antisense e[5mC]*e[5mC]*eT*eA*eG*dT*dT*d[5mC]*dG*d[5mC]*dA*dG*dA*dG*dT*e[5mC]*eG*eG*e[5mC]*eT) [compound 771690]”, for which, under setting [1], the “% inhibition of SMAD7 mRNA expression” value was 43%.

In general, % Inhibition refers to the change of the read-out against control, counted positive when it falls.
